This passage reports Activity and Average inhibition percentage results from article PMC5234788 (PLoS ONE, 2017).

The subject of one assay is T1, Serotonin, 5HT1A (h).
T1 construct: Caliper Lifescience
In words: Radio-ligand binding assay, Serotonin 5HT1A. The arrangement: species or system human. The note with it: 10 μM l-THBr. As for the experimental part:
(§1) To determine the possible targets of l-THBr action, the binding affinities of l-THBr to neurotransmitter receptors known to be involved in sedation, hypnosis and anxiety were investigated. Radio-ligand binding assays were performed by Caliper Lifescience (Hopkinton, MA, USA). The screening was carried out at a concentration of 10 μM l–THBr to test its ability to inhibit the binding of radioligands to their corresponding receptors. The results were expressed as percentage of inhibition of labeled ligand binding to individual receptors. Significant binding activity was defined as ≥50%.

Another assay concerns T2, Serotonin, 5HT2A.
T2 construct: Caliper Lifescience
In words: Radio-ligand binding assay, Serotonin 5HT2A. The following applies: 10 μM l-THBr; radioligand [3H]Ketanserin. As to the method:
as §1

As for `COc1ccc2c(c1O)CN1CCc3cc4c(cc3[C@@H]1C2)OCO4` [l-THBr, levo-tetrahydroberberrubine], the Activity result in the assay with Serotonin, 5HT1A (h) is recorded as “Yes (Significant binding affinity of l-THBr was defined as greater than 50% inhibition of ligand binding)”. For the same molecule, the Average inhibition percentage with Serotonin, 5HT1A (h) (radioligand [3H]-8-OH-DPAT) is listed as 78.31%; with Serotonin, 5HT2A, 40.90%.
